System: MCF7
Assay: Cytotoxicity against human MCF7 cells by SRB assay
Format: functional
Settings: read-out: ED50 (the source's name)

| Compound | EC50 [µM] |
| --- | --- |
| C=C1CC[C@@H]2[C@](C)(CO[Si](C)(C)C(C)(C)C)[C@H](O)CC[C@@]2(C)[C@@H]1C/C=C1/C(=O)OC[C@H]1O | 47 |
| C=C1CC[C@@H]2[C@](C)(CO[Si](C)(C)C(C)(C)C)[C@H](OC(C)=O)CC[C@@]2(C)[C@@H]1C/C=C1/C(=O)OC[C@H]1O | 9.79 |
| C=C1CC[C@@H]2[C@](C)(CO[Si](C)(C)C(C)(C)C)[C@H](O)CC[C@@]2(C)[C@@H]1C/C=C1/C(=O)OC[C@H]1OC(C)=O | 10.4 |
| C=C1CC[C@@H]2[C@](C)(CO[Si](C)(C)C(C)(C)C)[C@H](OC(C)=O)CC[C@@]2(C)[C@@H]1C/C=C1/C(=O)OC[C@H]1OC(C)=O | 2.84 |
| C=C1CC[C@@H]2[C@](C)(CO[Si](C(C)C)(C(C)C)C(C)C)[C@H](O)CC[C@@]2(C)[C@@H]1C/C=C1/C(=O)OC[C@H]1O | 2.88 |
| C=C1CC[C@@H]2[C@](C)(CO[Si](C(C)C)(C(C)C)C(C)C)[C@H](OC(C)=O)CC[C@@]2(C)[C@@H]1C/C=C1/C(=O)OC[C@H]1OC(C)=O | 14 |
| C=C1CC[C@@H]2[C@](C)(CO[Si](c3ccccc3)(c3ccccc3)C(C)(C)C)[C@H](O)CC[C@@]2(C)[C@@H]1C/C=C1/C(=O)OC[C@H]1O | 8.15 |
| C=C1CC[C@@H]2[C@](C)(CO[Si](c3ccccc3)(c3ccccc3)C(C)(C)C)[C@H](OC(C)=O)CC[C@@]2(C)[C@@H]1C/C=C1/C(=O)OC[C@H]1O | 7.53 |
| C=C1CC[C@@H]2[C@](C)(CO[Si](c3ccccc3)(c3ccccc3)C(C)(C)C)[C@H](O)CC[C@@]2(C)[C@@H]1C/C=C1/C(=O)OC[C@H]1OC(C)=O | 9.63 |
| C=C1CC[C@@H]2[C@](C)(CO[Si](c3ccccc3)(c3ccccc3)C(C)(C)C)[C@H](OC(C)=O)CC[C@@]2(C)[C@@H]1C/C=C1/C(=O)OC[C@H]1OC(C)=O | 45.7 |

System: Lu1
Assay: Cytotoxicity against human Lu1 cells by SRB assay
Format: functional
Settings: read-out: ED50 (the source's name)

| Compound | EC50 [µM] |
| --- | --- |
| C=C1CC[C@@H]2[C@](C)(CO[Si](C)(C)C(C)(C)C)[C@H](O)CC[C@@]2(C)[C@@H]1C/C=C1/C(=O)OC[C@H]1O | 48.8 |
| C=C1CC[C@@H]2[C@](C)(CO[Si](C)(C)C(C)(C)C)[C@H](OC(C)=O)CC[C@@]2(C)[C@@H]1C/C=C1/C(=O)OC[C@H]1O | 9.62 |
| C=C1CC[C@@H]2[C@](C)(CO[Si](C)(C)C(C)(C)C)[C@H](O)CC[C@@]2(C)[C@@H]1C/C=C1/C(=O)OC[C@H]1OC(C)=O | 10.4 |
| C=C1CC[C@@H]2[C@](C)(CO[Si](C)(C)C(C)(C)C)[C@H](OC(C)=O)CC[C@@]2(C)[C@@H]1C/C=C1/C(=O)OC[C@H]1OC(C)=O | 2.92 |
| C=C1CC[C@@H]2[C@](C)(CO[Si](C(C)C)(C(C)C)C(C)C)[C@H](O)CC[C@@]2(C)[C@@H]1C/C=C1/C(=O)OC[C@H]1O | 3.01 |
| C=C1CC[C@@H]2[C@](C)(CO[Si](C(C)C)(C(C)C)C(C)C)[C@H](OC(C)=O)CC[C@@]2(C)[C@@H]1C/C=C1/C(=O)OC[C@H]1OC(C)=O | 18.8 |
| C=C1CC[C@@H]2[C@](C)(CO[Si](c3ccccc3)(c3ccccc3)C(C)(C)C)[C@H](O)CC[C@@]2(C)[C@@H]1C/C=C1/C(=O)OC[C@H]1O | 11.5 |
| C=C1CC[C@@H]2[C@](C)(CO[Si](c3ccccc3)(c3ccccc3)C(C)(C)C)[C@H](OC(C)=O)CC[C@@]2(C)[C@@H]1C/C=C1/C(=O)OC[C@H]1O | 10.9 |
| C=C1CC[C@@H]2[C@](C)(CO[Si](c3ccccc3)(c3ccccc3)C(C)(C)C)[C@H](O)CC[C@@]2(C)[C@@H]1C/C=C1/C(=O)OC[C@H]1OC(C)=O | 11.9 |
| C=C1CC[C@@H]2[C@](C)(CO[Si](c3ccccc3)(c3ccccc3)C(C)(C)C)[C@H](OC(C)=O)CC[C@@]2(C)[C@@H]1C/C=C1/C(=O)OC[C@H]1OC(C)=O | 52.9 |

System: P388
Assay: Cytotoxicity against mouse P388 cells by SRB assay
Format: functional
Settings: read-out: ED50 (the source's name)

| Compound | EC50 [µM] |
| --- | --- |
| C=C1CC[C@@H]2[C@](C)(CO[Si](C)(C)C(C)(C)C)[C@H](O)CC[C@@]2(C)[C@@H]1C/C=C1/C(=O)OC[C@H]1O | 8.39 |
| C=C1CC[C@@H]2[C@](C)(CO[Si](C)(C)C(C)(C)C)[C@H](OC(C)=O)CC[C@@]2(C)[C@@H]1C/C=C1/C(=O)OC[C@H]1O | 1.71 |
| C=C1CC[C@@H]2[C@](C)(CO[Si](C)(C)C(C)(C)C)[C@H](O)CC[C@@]2(C)[C@@H]1C/C=C1/C(=O)OC[C@H]1OC(C)=O | 1.03 |
| C=C1CC[C@@H]2[C@](C)(CO[Si](C)(C)C(C)(C)C)[C@H](OC(C)=O)CC[C@@]2(C)[C@@H]1C/C=C1/C(=O)OC[C@H]1OC(C)=O | 0.34 |
| C=C1CC[C@@H]2[C@](C)(CO[Si](C(C)C)(C(C)C)C(C)C)[C@H](O)CC[C@@]2(C)[C@@H]1C/C=C1/C(=O)OC[C@H]1O | 0.88 |
| C=C1CC[C@@H]2[C@](C)(CO[Si](C(C)C)(C(C)C)C(C)C)[C@H](OC(C)=O)CC[C@@]2(C)[C@@H]1C/C=C1/C(=O)OC[C@H]1OC(C)=O | 1.41 |
| C=C1CC[C@@H]2[C@](C)(CO[Si](c3ccccc3)(c3ccccc3)C(C)(C)C)[C@H](O)CC[C@@]2(C)[C@@H]1C/C=C1/C(=O)OC[C@H]1O | 0.68 |
| C=C1CC[C@@H]2[C@](C)(CO[Si](c3ccccc3)(c3ccccc3)C(C)(C)C)[C@H](OC(C)=O)CC[C@@]2(C)[C@@H]1C/C=C1/C(=O)OC[C@H]1O | 0.5 |
| C=C1CC[C@@H]2[C@](C)(CO[Si](c3ccccc3)(c3ccccc3)C(C)(C)C)[C@H](O)CC[C@@]2(C)[C@@H]1C/C=C1/C(=O)OC[C@H]1OC(C)=O | 0.33 |
| C=C1CC[C@@H]2[C@](C)(CO[Si](c3ccccc3)(c3ccccc3)C(C)(C)C)[C@H](OC(C)=O)CC[C@@]2(C)[C@@H]1C/C=C1/C(=O)OC[C@H]1OC(C)=O | 1.67 |

System: KB
Assay: Cytotoxicity against human KB cells by SRB assay
Format: functional
Settings: read-out: ED50 (the source's name)

| Compound | EC50 [µM] |
| --- | --- |
| C=C1CC[C@@H]2[C@](C)(CO[Si](C)(C)C(C)(C)C)[C@H](O)CC[C@@]2(C)[C@@H]1C/C=C1/C(=O)OC[C@H]1O | 40.7 |
| C=C1CC[C@@H]2[C@](C)(CO[Si](C)(C)C(C)(C)C)[C@H](OC(C)=O)CC[C@@]2(C)[C@@H]1C/C=C1/C(=O)OC[C@H]1O | 11.2 |
| C=C1CC[C@@H]2[C@](C)(CO[Si](C)(C)C(C)(C)C)[C@H](O)CC[C@@]2(C)[C@@H]1C/C=C1/C(=O)OC[C@H]1OC(C)=O | 10.7 |
| C=C1CC[C@@H]2[C@](C)(CO[Si](C)(C)C(C)(C)C)[C@H](OC(C)=O)CC[C@@]2(C)[C@@H]1C/C=C1/C(=O)OC[C@H]1OC(C)=O | 3.62 |
| C=C1CC[C@@H]2[C@](C)(CO[Si](C(C)C)(C(C)C)C(C)C)[C@H](O)CC[C@@]2(C)[C@@H]1C/C=C1/C(=O)OC[C@H]1O | 2.73 |
| C=C1CC[C@@H]2[C@](C)(CO[Si](C(C)C)(C(C)C)C(C)C)[C@H](OC(C)=O)CC[C@@]2(C)[C@@H]1C/C=C1/C(=O)OC[C@H]1OC(C)=O | 7.39 |
| C=C1CC[C@@H]2[C@](C)(CO[Si](c3ccccc3)(c3ccccc3)C(C)(C)C)[C@H](O)CC[C@@]2(C)[C@@H]1C/C=C1/C(=O)OC[C@H]1O | 11.1 |
| C=C1CC[C@@H]2[C@](C)(CO[Si](c3ccccc3)(c3ccccc3)C(C)(C)C)[C@H](OC(C)=O)CC[C@@]2(C)[C@@H]1C/C=C1/C(=O)OC[C@H]1O | 9.86 |
| C=C1CC[C@@H]2[C@](C)(CO[Si](c3ccccc3)(c3ccccc3)C(C)(C)C)[C@H](O)CC[C@@]2(C)[C@@H]1C/C=C1/C(=O)OC[C@H]1OC(C)=O | 10.5 |
| C=C1CC[C@@H]2[C@](C)(CO[Si](c3ccccc3)(c3ccccc3)C(C)(C)C)[C@H](OC(C)=O)CC[C@@]2(C)[C@@H]1C/C=C1/C(=O)OC[C@H]1OC(C)=O | 29 |

System: Col2
Assay: Cytotoxicity against human Col2 cells by SRB assay
Format: functional
Settings: read-out: ED50 (the source's name)

| Compound | EC50 [µM] |
| --- | --- |
| C=C1CC[C@@H]2[C@](C)(CO[Si](C)(C)C(C)(C)C)[C@H](O)CC[C@@]2(C)[C@@H]1C/C=C1/C(=O)OC[C@H]1O | 17.1 |
| C=C1CC[C@@H]2[C@](C)(CO[Si](C)(C)C(C)(C)C)[C@H](OC(C)=O)CC[C@@]2(C)[C@@H]1C/C=C1/C(=O)OC[C@H]1O | 11.3 |
| C=C1CC[C@@H]2[C@](C)(CO[Si](C)(C)C(C)(C)C)[C@H](O)CC[C@@]2(C)[C@@H]1C/C=C1/C(=O)OC[C@H]1OC(C)=O | 8.94 |
| C=C1CC[C@@H]2[C@](C)(CO[Si](C)(C)C(C)(C)C)[C@H](OC(C)=O)CC[C@@]2(C)[C@@H]1C/C=C1/C(=O)OC[C@H]1OC(C)=O | 2.23 |
| C=C1CC[C@@H]2[C@](C)(CO[Si](C(C)C)(C(C)C)C(C)C)[C@H](O)CC[C@@]2(C)[C@@H]1C/C=C1/C(=O)OC[C@H]1O | 2.73 |
| C=C1CC[C@@H]2[C@](C)(CO[Si](C(C)C)(C(C)C)C(C)C)[C@H](OC(C)=O)CC[C@@]2(C)[C@@H]1C/C=C1/C(=O)OC[C@H]1OC(C)=O | 13.6 |
| C=C1CC[C@@H]2[C@](C)(CO[Si](c3ccccc3)(c3ccccc3)C(C)(C)C)[C@H](O)CC[C@@]2(C)[C@@H]1C/C=C1/C(=O)OC[C@H]1O | 9.65 |
| C=C1CC[C@@H]2[C@](C)(CO[Si](c3ccccc3)(c3ccccc3)C(C)(C)C)[C@H](OC(C)=O)CC[C@@]2(C)[C@@H]1C/C=C1/C(=O)OC[C@H]1O | 3.8 |
| C=C1CC[C@@H]2[C@](C)(CO[Si](c3ccccc3)(c3ccccc3)C(C)(C)C)[C@H](O)CC[C@@]2(C)[C@@H]1C/C=C1/C(=O)OC[C@H]1OC(C)=O | 10.7 |
| C=C1CC[C@@H]2[C@](C)(CO[Si](c3ccccc3)(c3ccccc3)C(C)(C)C)[C@H](OC(C)=O)CC[C@@]2(C)[C@@H]1C/C=C1/C(=O)OC[C@H]1OC(C)=O | 12.3 |

System: not listed separately
Assay: Cytotoxicity against rat ASK cells by SRB assay
Format: functional
Settings: read-out: ED50 (the source's name)

| Compound | EC50 [µM] |
| --- | --- |
| C=C1CC[C@@H]2[C@](C)(CO[Si](C)(C)C(C)(C)C)[C@H](O)CC[C@@]2(C)[C@@H]1C/C=C1/C(=O)OC[C@H]1O | 15.5 |
| C=C1CC[C@@H]2[C@](C)(CO[Si](C)(C)C(C)(C)C)[C@H](OC(C)=O)CC[C@@]2(C)[C@@H]1C/C=C1/C(=O)OC[C@H]1O | 8.17 |
| C=C1CC[C@@H]2[C@](C)(CO[Si](C)(C)C(C)(C)C)[C@H](O)CC[C@@]2(C)[C@@H]1C/C=C1/C(=O)OC[C@H]1OC(C)=O | 3.41 |
| C=C1CC[C@@H]2[C@](C)(CO[Si](C)(C)C(C)(C)C)[C@H](OC(C)=O)CC[C@@]2(C)[C@@H]1C/C=C1/C(=O)OC[C@H]1OC(C)=O | 1.22 |
| C=C1CC[C@@H]2[C@](C)(CO[Si](C(C)C)(C(C)C)C(C)C)[C@H](O)CC[C@@]2(C)[C@@H]1C/C=C1/C(=O)OC[C@H]1O | 2.85 |
| C=C1CC[C@@H]2[C@](C)(CO[Si](C(C)C)(C(C)C)C(C)C)[C@H](OC(C)=O)CC[C@@]2(C)[C@@H]1C/C=C1/C(=O)OC[C@H]1OC(C)=O | 7.56 |
| C=C1CC[C@@H]2[C@](C)(CO[Si](c3ccccc3)(c3ccccc3)C(C)(C)C)[C@H](O)CC[C@@]2(C)[C@@H]1C/C=C1/C(=O)OC[C@H]1O | 5.54 |
| C=C1CC[C@@H]2[C@](C)(CO[Si](c3ccccc3)(c3ccccc3)C(C)(C)C)[C@H](OC(C)=O)CC[C@@]2(C)[C@@H]1C/C=C1/C(=O)OC[C@H]1O | 10.5 |
| C=C1CC[C@@H]2[C@](C)(CO[Si](c3ccccc3)(c3ccccc3)C(C)(C)C)[C@H](O)CC[C@@]2(C)[C@@H]1C/C=C1/C(=O)OC[C@H]1OC(C)=O | 12 |
| C=C1CC[C@@H]2[C@](C)(CO[Si](c3ccccc3)(c3ccccc3)C(C)(C)C)[C@H](OC(C)=O)CC[C@@]2(C)[C@@H]1C/C=C1/C(=O)OC[C@H]1OC(C)=O | 32.8 |

— ChEMBL document CHEMBL1932926, “New substituted C-19-andrographolide analogues with potent cytotoxic activities” (2012)
